Values quoted from earlier work in US20240374689A1 (Longevity Biotech, Inc., priority 2010, published 2024).

Conditions: in humans

Substance: GLP-1
- plasma half-life: 2 min
